These results are taken from US20090203744A1, “NOVEL PYRIDINE DERIVATIVES” (priority 2005, published 2009).

The subject of the first test is 3T3-L1 cells. Nature of the test: Glucose uptake assay using 3T3-L1 cells. In kind it is cell-based. The note with it: differentiated 3T3-L1 adipocytes, 1 μM, 72 hours, 14C deoxyglucose uptake for 10 minutes; with reference to stimulation index of BLX-1002. Here is the method:
3T3-L1 cells were differentiated by the addition of differentiation cocktail (72 μg/ml insulin, 0.5 mM IBMX, 400 ng/ml Dexamethasone) for 4 days and later fed with media without differentiation cocktail for 7-8 days. After differentiation the cells were incubated with the either the reference compound BLX-1002 or compounds listed in the table 1 at 1 μM concentrations for 72 hours and carried out the glucose uptake assay for 10 minutes by the addition of KRP buffer supplemented with 2.5 μCi/ml ^14C deoxy glucose. Stimulation Index is defined as the amount of ^14C Deoxyglucose uptake induced by 1 μM of BLX-1002 incubated for 72 hours in an assay condition as per protocol described above with differentiated 3T3-L1 adipocytes. Values of compounds mentioned in table-1 are with reference to stimulation index of reference compound BLX-1002.
`CN1C(=O)OC[C@@H]1Cc1ccc(Oc2ccc(Nc3ccccn3)cc2)cc1` [Example 1, 3-methyl-4-{4-[4-(pyridin-2-ylamino)phenoxy]benzyl}-1,3-oxazolidin-2-one]: the “Stimulation Index” value was determined as 0.827.
On the same count and under the same terms, under `CN1C(=O)OC[C@@H]1Cc1ccc(Oc2ccc(Nc3ccc([N+](=O)[O-])cn3)cc2)cc1` [Example 2, (4S)4-(4-{4-[(5-nitropyridin-2-yl)amino]phenoxy}benzyl)-3-methyl-1,3-oxazolidin-2-one] stands 0.935; under `CCN1C(=O)OC[C@@H]1Cc1ccc(Oc2ccc(Nc3ccccn3)cc2F)cc1` [Example 8, (4S)-4-[4-(2-fluoro-4-{[5-pyridin-2-yl]amino}phenoxy)benzyl]-3-ethyl-1,3-oxazolidin-2-one], 1.049.
With `CCN1C(=O)OC[C@@H]1Cc1ccc(Oc2ccc(Nc3ncccc3[N+](=O)[O-])cc2F)cc1` [Example 12, (4S)-4-[4-(2-fluoro-4-{[3-nitropyridin-2-yl]amino}phenoxy)benzyl]-3-ethyl-1,3-oxazolidin-2-one], the “Stimulation Index” value was 0.935.
As to `CCN1C(=O)OC[C@@H]1Cc1ccc(Oc2ccc(Nc3ncccc3C#N)cc2F)cc1` [Example 13, 2-{[3-fluoro-4-(4-{[(4S)-3-ethyl-2-oxo-1,3-oxazolidin-4-yl]methyl}phenoxy)phenyl]amino}nicotinonitrile], the “Stimulation Index” value is reported as 0.874.
On the same count and under the same terms, under `CCN1C(=O)OC[C@@H]1Cc1ccc(Oc2ccc(Nc3ncccc3C#N)cc2)cc1` [Example 14, 2-[(4-{4-[(3-ethyl-2-oxo-1,3-oxazolidin-4-yl)methyl]phenoxy}phenyl)amino]nicotinonitrile] stands 0.827.

The next test deals with Streptozotocin induced diabetic mice. Nature of the test: Antidiabetic activity in Streptozotocin induced diabetic mice. Conditions: plasma, 50 mg/kg oral for 7 days, fasted 6 hours, compared to control group. In kind it is in vivo. Here is the method:
Male Swiss albino mice were used in the study at the age of 10 weeks. Diabetes was induced in animals by injecting Streptozotocin by i.p. route at a dose of 200-mg/kg-body weight. 48 hours after Streptozotocin administration, the animals were kept for fasting for 6 hours and blood was collected and plasma separated and glucose was estimated. Animals showing greater than 200 mg/dl glucose levels were considered as diabetic and these animals were randomly distributed into various groups. The compounds listed in the table 2 were administered at a dose of 50-mg/kg body weight by oral route for 7 days. Later animals were fasted for 6 hours and blood was collected and plasma separated. Biochemical estimations like glucose, cholesterol and triglycerides were carried out using the plasma. The effect of compounds mentioned in the table was expressed in terms of percentage reduction in biochemical values as compared to control group.
Regarding `CN1C(=O)OC[C@@H]1Cc1ccc(Oc2ccc(Nc3ncccc3C#N)cc2F)cc1` [Example 22, 2-{[3-fluoro-4-(4-{[(4S)-3-methyl-2-oxo-1,3-oxazolidin-4-yl]methyl}phenoxy)phenyl]amino}nicotinonitrile], the “% Reduction Triglyceride” value is on record as 5.2%.
Consider `CCN(c1ccc(Oc2ccc(C[C@H]3COC(=O)N3CC)cc2)cc1)c1ncccc1C#N` [Example 24, (4S)-2-[ethyl(4-{4-[(3-ethyl-2-oxo-1,3-oxazolidin-4-yl)methyl]phenoxy}phenyl)amino]nicotinonitrile], for which the “% Reduction Cholesterol” value was determined as 15.9% and the “% Reduction Triglyceride” value was determined as 13.7%.
On to `CN(c1ccc(Oc2ccc(C[C@H]3COC(=O)N3C)cc2)cc1)c1ncccc1C#N` [Example 45, (4S)-2-[methyl(4-{4-[(3-methyl-2-oxo-1,3-oxazolidin-4-yl)methyl]phenoxy}phenyl)amino]nicotinonitrile], for which the “% Reduction Cholesterol” value is reported as 10%, the “% Reduction Glucose” value worked out at 39% and the “% Reduction Triglyceride” value amounted to 53.8%.
